Reference: ChEMBL document CHEMBL1201862, “PubChem BioAssay data set” (2004)
Active and inactive are the calls of the source.

Assays:
P388/ADR = assay: cells; type: functional; conditions: Mus musculus
SN12K1 = assay: cells; type: functional; conditions: Homo sapiens
P388 = assay: cells; type: functional; conditions: Mus musculus
[1] = target: T1, Ubiquitin-conjugating enzyme E2 N (Homo sapiens, UniProt P61088); type: functional;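 note: Dose-response confirmation in a TR-FRET assay detecting UBC13-driven polyubiquitin chain formation, inhibition measured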
T1 sequence (P61088 whole entry): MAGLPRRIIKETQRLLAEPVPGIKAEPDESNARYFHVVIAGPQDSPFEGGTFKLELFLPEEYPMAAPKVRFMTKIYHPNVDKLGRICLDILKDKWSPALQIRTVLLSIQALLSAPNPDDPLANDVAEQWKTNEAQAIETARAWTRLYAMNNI

[2] = target: T2, Apoptotic protease-activating factor 1 (Homo sapiens, UniProt O14727); type: functional
T2 sequence (O14727 whole entry): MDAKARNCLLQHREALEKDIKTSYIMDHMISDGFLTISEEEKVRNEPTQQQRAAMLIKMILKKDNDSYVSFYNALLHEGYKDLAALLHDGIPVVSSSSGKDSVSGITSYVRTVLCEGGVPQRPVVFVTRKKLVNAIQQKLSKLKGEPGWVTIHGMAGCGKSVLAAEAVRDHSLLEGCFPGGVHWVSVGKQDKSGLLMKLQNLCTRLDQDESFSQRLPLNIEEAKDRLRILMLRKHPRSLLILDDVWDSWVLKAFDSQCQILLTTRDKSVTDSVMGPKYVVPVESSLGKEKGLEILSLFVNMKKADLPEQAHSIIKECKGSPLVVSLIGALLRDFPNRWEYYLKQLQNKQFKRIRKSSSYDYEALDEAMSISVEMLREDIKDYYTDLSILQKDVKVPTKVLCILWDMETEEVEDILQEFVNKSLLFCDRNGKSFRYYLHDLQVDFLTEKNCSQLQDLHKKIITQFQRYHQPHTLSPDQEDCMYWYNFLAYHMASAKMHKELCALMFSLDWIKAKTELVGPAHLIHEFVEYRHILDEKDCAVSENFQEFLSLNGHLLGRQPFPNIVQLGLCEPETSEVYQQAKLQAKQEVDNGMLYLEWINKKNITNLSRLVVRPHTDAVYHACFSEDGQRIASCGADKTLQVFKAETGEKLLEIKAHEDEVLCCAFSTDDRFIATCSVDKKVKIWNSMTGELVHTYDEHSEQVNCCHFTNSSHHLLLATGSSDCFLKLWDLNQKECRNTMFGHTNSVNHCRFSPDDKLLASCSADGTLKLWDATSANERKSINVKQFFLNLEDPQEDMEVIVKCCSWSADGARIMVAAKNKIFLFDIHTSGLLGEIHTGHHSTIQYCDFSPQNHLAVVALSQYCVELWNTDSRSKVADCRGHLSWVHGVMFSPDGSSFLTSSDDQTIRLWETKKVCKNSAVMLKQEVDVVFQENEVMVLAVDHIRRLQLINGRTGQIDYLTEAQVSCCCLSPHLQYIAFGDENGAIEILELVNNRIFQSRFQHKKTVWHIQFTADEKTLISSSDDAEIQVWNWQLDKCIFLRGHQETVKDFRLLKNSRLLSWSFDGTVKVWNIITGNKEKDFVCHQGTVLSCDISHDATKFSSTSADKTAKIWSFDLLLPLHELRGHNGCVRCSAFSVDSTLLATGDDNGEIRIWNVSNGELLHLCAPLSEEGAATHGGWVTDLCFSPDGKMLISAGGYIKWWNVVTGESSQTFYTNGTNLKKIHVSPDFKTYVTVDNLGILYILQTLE

Fatty acid synthase [3] = target: T3, Fatty acid synthase (Homo sapiens, UniProt P49327); assay: FAS thioesterase domain inhibitors, dose response, biochemical, endpoint fluorescence intensity, uHTS hits (AID 624327); type: functional;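 note: fluorescence from hydrolysis of an O-methyl fluorescein acyl ester substrate by the enzyme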
Fatty acid synthase [4] = target: T3, Fatty acid synthase; assay: FAS thioesterase domain inhibitors, dose response, biochemical, kinetic fluorescence intensity (AID 624326); type: functional;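 note: rate of fluorescence rise from hydrolysis of a fluorogenic O-methyl fluorescein ester substrate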
[5] = target: T4, Replicative DNA helicase DnaB (Mycobacterium tuberculosis, UniProt P9WMR3); assay: DnaB intein splicing inhibitors, dose response, biochemical, cell-free fluorescence (AID 449749); type: functional
T4 sequence (P9WMR3 whole entry): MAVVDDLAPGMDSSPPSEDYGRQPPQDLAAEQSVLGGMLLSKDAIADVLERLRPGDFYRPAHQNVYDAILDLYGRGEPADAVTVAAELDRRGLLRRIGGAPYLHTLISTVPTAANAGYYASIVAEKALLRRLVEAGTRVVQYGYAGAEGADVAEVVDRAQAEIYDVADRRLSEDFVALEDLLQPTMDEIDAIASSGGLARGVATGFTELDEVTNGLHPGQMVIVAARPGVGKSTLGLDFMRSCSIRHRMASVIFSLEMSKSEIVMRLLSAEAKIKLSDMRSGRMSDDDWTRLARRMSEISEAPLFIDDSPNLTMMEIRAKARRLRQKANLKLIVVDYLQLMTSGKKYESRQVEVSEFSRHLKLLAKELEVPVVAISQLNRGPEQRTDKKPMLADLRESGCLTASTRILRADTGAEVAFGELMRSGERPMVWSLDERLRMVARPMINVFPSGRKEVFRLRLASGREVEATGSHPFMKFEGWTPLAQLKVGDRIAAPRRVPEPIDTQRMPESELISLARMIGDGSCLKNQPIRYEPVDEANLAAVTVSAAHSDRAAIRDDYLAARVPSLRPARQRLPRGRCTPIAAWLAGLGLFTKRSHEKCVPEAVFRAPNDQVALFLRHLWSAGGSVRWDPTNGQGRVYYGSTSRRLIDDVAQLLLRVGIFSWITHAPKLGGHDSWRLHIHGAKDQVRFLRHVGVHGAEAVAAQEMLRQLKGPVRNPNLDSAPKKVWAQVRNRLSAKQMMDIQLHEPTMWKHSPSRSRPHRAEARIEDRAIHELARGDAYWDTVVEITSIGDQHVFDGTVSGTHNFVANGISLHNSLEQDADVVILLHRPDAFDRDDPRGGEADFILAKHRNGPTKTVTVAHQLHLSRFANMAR

Protein RecA = target: T5, Protein RecA (Mycobacterium tuberculosis, UniProt P9WHJ3); assay: Fluorescence Cell-Free Homogeneous Dose Retest to Identify Inhibitors of RecA-Intein Splicing Activity. [Related pubchem assays (depositor defined):AID2097, AID2223, AID489010, AID492950]; type: functional
T5 sequence (P9WHJ3 whole entry): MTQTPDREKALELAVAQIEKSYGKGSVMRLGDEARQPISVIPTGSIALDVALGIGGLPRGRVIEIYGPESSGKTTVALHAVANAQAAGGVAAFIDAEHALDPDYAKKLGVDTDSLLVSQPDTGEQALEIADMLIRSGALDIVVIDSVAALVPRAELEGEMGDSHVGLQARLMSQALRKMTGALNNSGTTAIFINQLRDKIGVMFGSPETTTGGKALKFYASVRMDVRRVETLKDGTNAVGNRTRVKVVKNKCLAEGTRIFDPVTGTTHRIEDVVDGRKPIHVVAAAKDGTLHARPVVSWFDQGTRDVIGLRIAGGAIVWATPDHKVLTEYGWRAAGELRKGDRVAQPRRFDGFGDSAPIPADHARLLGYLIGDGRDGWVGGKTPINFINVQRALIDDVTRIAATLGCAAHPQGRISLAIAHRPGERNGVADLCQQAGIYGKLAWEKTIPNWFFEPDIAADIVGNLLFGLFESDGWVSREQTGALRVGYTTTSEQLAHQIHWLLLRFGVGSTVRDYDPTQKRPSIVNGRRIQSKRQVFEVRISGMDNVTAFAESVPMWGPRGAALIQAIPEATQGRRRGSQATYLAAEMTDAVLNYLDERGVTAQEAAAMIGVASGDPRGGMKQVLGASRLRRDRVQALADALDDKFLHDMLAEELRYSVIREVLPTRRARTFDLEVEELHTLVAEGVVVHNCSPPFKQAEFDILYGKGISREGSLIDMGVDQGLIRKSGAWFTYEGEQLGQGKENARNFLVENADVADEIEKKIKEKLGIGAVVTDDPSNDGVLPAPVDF

Paired box protein Pax-8 = Paired box protein Pax-8 (Homo sapiens, UniProt Q06710); assay: inhibitors of PAX8-driven TPO luciferase reporter, dose response, RMG-I cells, cherry-pick (AID 687027); type: functional, cell-based;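 note: luciferase reporter driven by Pax8 target thyroperoxidase promoter measured by SteadyGlo luminescence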
[6] = inhibitors of intracellular T. cruzi replication, confirmation, NIH3T3 host cells, beta-gal luminescence (AID 2044); type: functional, cell-based;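 note: intracellular parasites grown in NIH/3T3 mouse fibroblasts as host cells; luminescent beta-galactosidase reporter signal from transgenic T. cruzi replicating inside host cells; inhibitors lower the luminescence signal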
[7] = cytotoxicity toward NIH3T3 fibroblasts, dose response, counter-screen, cell-based, ATP luminescence, mouse fibroblasts (AID 2010); type: functional;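 note: cells exposed to compound for about 90 hours before reading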

T3 sequence (P49327 whole entry, the tested form may be a part): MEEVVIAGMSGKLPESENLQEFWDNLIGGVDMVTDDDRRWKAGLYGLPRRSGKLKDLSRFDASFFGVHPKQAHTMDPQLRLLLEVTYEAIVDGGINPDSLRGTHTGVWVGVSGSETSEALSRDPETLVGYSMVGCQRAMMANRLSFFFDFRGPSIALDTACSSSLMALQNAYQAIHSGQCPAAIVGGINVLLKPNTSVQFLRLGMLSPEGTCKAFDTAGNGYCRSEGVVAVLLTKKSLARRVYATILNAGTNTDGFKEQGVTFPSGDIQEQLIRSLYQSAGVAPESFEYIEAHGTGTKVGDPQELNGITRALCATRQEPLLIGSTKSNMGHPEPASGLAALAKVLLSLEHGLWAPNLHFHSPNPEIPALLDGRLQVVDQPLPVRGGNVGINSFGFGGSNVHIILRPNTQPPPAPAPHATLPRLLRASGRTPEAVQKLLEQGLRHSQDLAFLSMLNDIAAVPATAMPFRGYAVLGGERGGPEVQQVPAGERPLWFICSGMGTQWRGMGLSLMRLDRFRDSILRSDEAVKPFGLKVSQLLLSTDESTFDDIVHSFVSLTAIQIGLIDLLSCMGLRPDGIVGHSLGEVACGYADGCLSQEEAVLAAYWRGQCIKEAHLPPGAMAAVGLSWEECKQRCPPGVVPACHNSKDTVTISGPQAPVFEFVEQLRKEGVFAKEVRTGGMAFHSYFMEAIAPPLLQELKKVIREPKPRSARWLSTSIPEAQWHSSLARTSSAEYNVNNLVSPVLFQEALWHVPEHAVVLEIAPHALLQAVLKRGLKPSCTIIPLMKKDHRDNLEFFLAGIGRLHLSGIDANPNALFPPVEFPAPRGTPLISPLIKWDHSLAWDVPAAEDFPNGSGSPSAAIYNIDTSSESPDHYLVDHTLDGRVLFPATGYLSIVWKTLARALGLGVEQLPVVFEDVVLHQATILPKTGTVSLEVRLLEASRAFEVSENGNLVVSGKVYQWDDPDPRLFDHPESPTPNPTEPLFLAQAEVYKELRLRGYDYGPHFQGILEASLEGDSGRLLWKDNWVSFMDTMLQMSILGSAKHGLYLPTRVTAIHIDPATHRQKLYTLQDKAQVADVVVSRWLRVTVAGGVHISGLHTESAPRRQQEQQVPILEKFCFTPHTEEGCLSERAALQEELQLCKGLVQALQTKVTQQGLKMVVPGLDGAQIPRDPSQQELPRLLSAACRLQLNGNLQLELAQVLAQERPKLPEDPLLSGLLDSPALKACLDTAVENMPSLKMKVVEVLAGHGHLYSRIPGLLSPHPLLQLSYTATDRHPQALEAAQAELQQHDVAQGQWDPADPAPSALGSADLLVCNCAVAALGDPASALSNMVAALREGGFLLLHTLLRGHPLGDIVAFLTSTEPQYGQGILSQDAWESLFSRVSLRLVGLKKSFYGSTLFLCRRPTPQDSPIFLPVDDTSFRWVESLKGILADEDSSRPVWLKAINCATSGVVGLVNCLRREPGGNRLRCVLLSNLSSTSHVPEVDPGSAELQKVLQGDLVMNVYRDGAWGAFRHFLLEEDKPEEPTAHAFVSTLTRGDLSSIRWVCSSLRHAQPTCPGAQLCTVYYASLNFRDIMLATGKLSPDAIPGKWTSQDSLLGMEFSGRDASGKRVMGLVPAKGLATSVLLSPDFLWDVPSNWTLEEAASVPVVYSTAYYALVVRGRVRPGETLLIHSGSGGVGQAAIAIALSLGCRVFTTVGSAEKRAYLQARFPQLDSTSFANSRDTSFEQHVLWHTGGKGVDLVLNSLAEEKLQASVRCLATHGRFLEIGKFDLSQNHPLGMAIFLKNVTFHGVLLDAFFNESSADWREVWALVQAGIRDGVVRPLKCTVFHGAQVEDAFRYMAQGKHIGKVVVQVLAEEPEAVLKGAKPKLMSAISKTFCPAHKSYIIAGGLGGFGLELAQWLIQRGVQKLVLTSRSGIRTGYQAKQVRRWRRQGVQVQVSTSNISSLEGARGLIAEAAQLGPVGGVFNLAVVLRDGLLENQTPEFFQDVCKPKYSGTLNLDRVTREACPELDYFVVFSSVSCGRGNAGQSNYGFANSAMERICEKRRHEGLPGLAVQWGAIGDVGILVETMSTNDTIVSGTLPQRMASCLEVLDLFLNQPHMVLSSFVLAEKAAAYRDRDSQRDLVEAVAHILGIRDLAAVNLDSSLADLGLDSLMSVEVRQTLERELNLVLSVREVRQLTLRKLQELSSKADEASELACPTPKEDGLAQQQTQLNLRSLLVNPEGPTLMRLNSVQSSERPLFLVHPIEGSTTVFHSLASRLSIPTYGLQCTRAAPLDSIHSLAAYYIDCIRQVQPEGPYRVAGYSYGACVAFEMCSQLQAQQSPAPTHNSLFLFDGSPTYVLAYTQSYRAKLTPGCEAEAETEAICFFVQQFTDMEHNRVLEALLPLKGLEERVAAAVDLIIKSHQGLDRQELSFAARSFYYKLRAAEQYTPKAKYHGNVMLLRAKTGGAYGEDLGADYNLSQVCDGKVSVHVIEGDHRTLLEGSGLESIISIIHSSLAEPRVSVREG
Paired box protein Pax-8, sequence (Q06710 whole entry): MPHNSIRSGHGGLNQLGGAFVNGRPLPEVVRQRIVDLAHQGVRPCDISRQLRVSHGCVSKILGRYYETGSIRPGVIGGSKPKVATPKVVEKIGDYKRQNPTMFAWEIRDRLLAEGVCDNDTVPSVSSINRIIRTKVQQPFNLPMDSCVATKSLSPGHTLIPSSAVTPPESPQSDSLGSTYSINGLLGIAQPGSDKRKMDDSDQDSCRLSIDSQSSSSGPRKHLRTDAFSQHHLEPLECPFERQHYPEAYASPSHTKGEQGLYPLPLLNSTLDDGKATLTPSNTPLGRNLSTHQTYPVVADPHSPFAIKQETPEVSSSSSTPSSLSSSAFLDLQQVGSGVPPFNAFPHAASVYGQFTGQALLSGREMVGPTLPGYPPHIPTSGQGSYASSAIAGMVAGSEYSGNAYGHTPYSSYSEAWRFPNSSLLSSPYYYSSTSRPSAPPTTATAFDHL

Row | SMILES | GI50 (P388/ADR) | GI50 (SN12K1) | GI50 (P388) | IC50 (Fatty acid synthase [3]) | IC50 (Fatty acid synthase [4]) | other results
1 | N[C@H](C(=O)O)[C@@H]1CC(Cl)=NO1 [ACIVICIN] | 0.471 µM (active) | 1.13 µM (inactive) | 0.242 µM (active) |  |  | 
2 | COc1ccccc1OCCNC(=O)c1cccc(S(=O)(=O)N2CCN(Cc3ccccc3)CC2)c1 |  |  |  |  |  | IC50 [1]: > 20 µM (inactive); IC50 [2]: > 100 µM (inactive)
3 | O=C(NCc1ccc2c(c1)OCO2)c1ccc(C2SCC(=O)N2Cc2ccco2)cc1 (stereo not given) |  |  |  | 8.5 µM (active) | 5.95 µM (active) | 
4 | COc1ccc2[nH]c3c(c2c1)CCN1C(=O)C(CC(=O)NC(C)(C)C)C[C@H](C(=O)N2CCOCC2)[C@@]31CCC1CCCC1 (stereo not given in full) |  |  |  | 8.32 µM (active) | 7.48 µM (active) | 
5 | COC(=O)C1=C(C)N(Cc2ccccc2)C(NCCc2c[nH]c3ccccc23)=N[C@H]1c1cccc(C(F)(F)F)c1 |  |  |  |  |  | IC50 [1]: > 20 µM (inactive); IC50 [2]: 71 µM (active)
6 | CCOC(=O)C1CCCN(c2nc3c(C)cccn3c(=O)c2/C=C(\C#N)C(=O)NCc2ccco2)C1 (stereo not given) |  |  |  | 16.2 µM (active) | 8.23 µM (active) | 
7 | CNC=O | > 10000 µM (inactive) | > 10000 µM (inactive) | > 5620 µM (inactive) |  |  | 
8 | CO[C@H]1Nc2c(ccc(C)c2O)C(=O)N2C=C(/C=C/C(N)=O)C[C@@H]12 [ANTHRAMYCIN METHYL ETHER] | 0.101 µM (active) | 0.0197 µM (active) | 0.0436 µM (active) |  |  | 
9 | Cc1sc(N2CCN(S(=O)(=O)c3ccc4c(c3)NC(=O)CO4)CC2)nc1-c1ccccc1 |  |  |  | 4.15 µM (active) | 4.04 µM (active) | 
10 | COc1cc(/C=C/C(=O)Oc2ccc(NC(C)=O)cc2)ccc1C(=O)O/C=C/c1ccccc1 | 8.02 µM (inactive) | > 100 µM (inactive) | 18.8 µM (inactive) |  |  | 
11 | C[C@H](NC(=O)c1[nH]cnc1C(=O)N[C@@H](CCCCNC(=O)OC(C)(C)C)C(=O)OC(C)(C)C)C(=O)OC(C)(C)C |  |  |  | 2.95 µM (active) | 2.6 µM (active) | 
12 | CN(C)c1cc(N/N=C/c2ccccc2C(F)(F)F)nc(N(C)C)n1 |  |  |  |  |  | IC50 [2]: 5.07 µM (active)
13 | C/C(CC(=O)Nc1cc(C)ccn1)=N\NC(=O)c1ccncc1 |  |  |  |  |  | AC50 [5]: 7.32 µM (active); EC50 (Protein RecA): 4.03 µM (active)
14 | C=C1C(C)C2C(Cc3ccccc3)NC(=O)C23OC(=O)/C=C\CC(=O)CCC(C)C/C=C/C3C1O (stereo not given) | 0.224 µM (active) | 0.444 µM (active) | 0.0552 µM (active) |  |  | 
15 | CC(=O)OC1CCC2(C)C(CCC3C2CCC2(C)C(c4ccc(=O)oc4)C(OC(C)=O)CC32O)C1 (stereo not given) | 40.9 µM (inactive) | 0.0144 µM (active) | 14.6 µM (inactive) |  |  | 
16 | OC[C@H]1O[C@@H](n2cnc3cncnc32)[C@H](O)[C@@H]1O [NEBULARINE] | 0.305 µM (active) | 1.48 µM (inactive) | 0.321 µM (active) |  |  | 
17 | O=C1Sc2sc(=S)sc2SC1c1ccccc1 (stereo not given) | 23.7 µM (inactive) | 25.1 µM (inactive) | 22.5 µM (inactive) |  |  | 
18 | CC1=NN(c2ccccc2)C(=O)C1=C(C)C |  |  |  |  |  | AC50 [5]: 5.6 µM (active); EC50 (Protein RecA): 2.46 µM (active)
19 | O=C(c1ccc(N2CCN(CCO)CC2)nc1)N1CCOCC1 |  |  |  |  |  | AC50 [5]: > 380 µM (inactive); EC50 (Protein RecA): > 380 µM (inactive)
20 | C=C(C)c1nc(Oc2ccccc2)nc(Oc2ccccc2)n1 | 0.824 µM (active) | 3.35 µM (inactive) | 1.17 µM (inactive) |  |  | AC50 (Paired box protein Pax-8): 3.04 µM (active)
21 | Cc1c(Cl)c([N+](=O)[O-])nn1CCCC(=O)N(Cc1ccccc1)Cc1ccccc1 |  |  |  | 10 µM (active) | 11 µM (active) | EC50 [6]: 1.86 µM (active); EC50 [7]: 29.7 µM (active)
22 | Cc1cccc(OCC(=O)N/N=C/c2cc([N+](=O)[O-])ccc2N2CCOCC2)c1 |  |  |  | 9.22 µM (active) | 8.84 µM (active) | 
